Holding throughout (assay type): physicochemical
The nature of series [1]: Solubility in various media (equilibration on a shaking bed for 24 hours, HPLC). Particulars: at pH of about 4.4. As to the method:
Solubility: The solubility of form IA in various media was determined at ambient conditions by equilibrating aliquots of the drug powder with the solvents on a shaking bed for 24 hours. The samples were centrifuged, the saturated solutions of the drug were then separated and analyzed by HPLC. The sample volume was 100 μL and the target concentration was 10 mg/mL. The saturated solutions were diluted appropriately and analyzed by HPLC.
Solubility: Solubility of form IIC in various media was determined at ambient conditions by equilibrating aliquots of the drug powder with the solvents on a shaking bed for 24 hours. Samples were spun and the supernatant was carefully separated and analyzed by HPLC at the 24-hour timepoint using a stability-indicating method. […] Some variability may occur between lots of a particular sample.
Solubility: Solubility of form IIIB in various media was determined at ambient conditions by equilibrating aliquots of the drug powder with the medium on a shaking bed for 24 hours. The samples were centrifuged, the saturated solutions of the drug were then separated and analyzed by HPLC. The sample volume was 100 μL, and the target concentration was 10 mg/ml. The saturated solutions were diluted appropriately and analyzed by HPLC.

The nature of series [2]: Dynamic Vapor Sorption (DVS), step isothermal study. The conditions noted are these: step isothermic study (DVS), 25° C. As to the method: Dynamic Vapor Sorption (DVS): A step isothermal study (25° C.) was conducted on a representative sample of form IA using a VTI SGA 100 Symmetric Vapor Sorption Analyzer. An aliquot of approximately 10 mg was weighed in an open platinum dish and exposed to different levels of humidity at 25° C. Relative humidity (RH) steps were from 5% to 95% (adsorption) and from 95% to 5% in increments of 5% RH (desorption). The equilibration criterion was 0.0100 wt % change in 5 min, with a max equilibration time of 180 min. The sample picked up ˜8 wt % moisture at 95% relative humidity (RH).
Dynamic Vapor Sorption (DVS): A step isothermal study (25° C.) was conducted on a sample of form IIA using a VTI SGA 100 Symmetric Vapor Sorption Analyzer. An aliquot of approximately 10 mg was weighed in an open platinum dish and exposed to different levels of humidity at 25° C. Relative humidity (RH) steps were from 5% to 95% (adsorption) and from 95% to 5% in increments of 5% RH (desorption). The equilibration criterion was 0.0100 wt % change in 5 min, with a max equilibration time of 180 min. The material picked up ˜11 wt % moisture at 95% relative humidity (RH).
Dynamic Vapor Sorption (DVS): A step isothermal study (25° C.) was conducted on a sample of form IIC using a VTI SGA 100 Symmetric Vapor Sorption Analyzer. An aliquot of approximately 10 mg was weighed in an open platinum dish and exposed to different levels of humidity at 25° C. Relative humidity (RH) steps were from 5% to 95% (adsorption) and from 95% to 5% in increments of 5% RH (desorption). The equilibration criterion was 0.0100 wt % change in 5 min, with a max equilibration time of 180 min. The material picked up ˜4 wt % moisture at 95% relative humidity (RH).
Water Vapor Sorption analysis: Vapor Sorption analysis of a sample of form IIIB was done using a SGA-100 Vapor Sorption Analyzer (VTI, Hialeah, Fla.). A sample with weight of approximately 7-12 mg was measured isothermally at 25° C. Data was collected by Isotherm software and analyzed by Microsoft Excel with a VTI macro (VTI, Hialeah, Fla.). The sample gained about 4.6% in weight from 5 to 95% RH (25° C.).

Series [3] can be described thus: Stability analysis (chemical stability by HPLC, physical stability by XRPD). The conditions noted are these: 40° C./75% relative humidity. The text has this: In some embodiments, less than 25% of the form of Compound 1 decomposes, in some embodiments, less than about 20%, less than about 15%, less than about 10%, less than about 5%, less than about 3%, less than about 1%, less than about 0.5% of the form of Compound 1 decomposes under the conditions specified. In some embodiments, no detectable amount of the form of Compound 1 decomposes.
In some embodiments, less than 25% of the form of Compound 1 changes into one or more different physical forms when subjected to specified conditions, In some embodiments, less than about 20%, less than about 15%, less than about 10%, less than about 5%, less than about 3%, less than about 1%, less than about 0.5% of the form of Compound 1 changes into one or more different physical forms of Compound 1 when subjected to specified conditions. In some embodiments, no detectable amount of the form of Compound 1 changes into one or more different physical forms of Compound 1.

Take `CCNC(=O)Nc1nc2cc(-c3cncc(F)c3)cc(-c3ncccn3)c2[nH]1.CS(=O)(=O)O` [crystalline1-ethyl-3-(5-(5-fluoropyridin-3-yl)-7-(pyrimidin-] [1-ethyl-3-(5-(5-fluoropyridin-3-yl)-7-(pyrimidin-2-yl)-1H-benzo[d]imidazol-2-yl)urea.monomesylate]: in series [1], the solubility result is recorded as “greater than 12 mg/ml”. Also, in series [2], the “weight gain from 5% to 95% relative humidity” value was found to be 4.6%. Further, in series [3], the “remains chemically stable for at least” value is “at least 1 months” and the “remains in substantially the same physical form for at least” value is “at least 1 months”.

The values are drawn from patent US8217172B2, “Solid forms of 1-ethyl-3-(5-(5-fluoropyridin-3-yl)-7-(pyrimidin-2-yl)-1H-benzo[d]imidazol-2-yl)urea” (Vertex Pharmaceuticals Incorporated, priority 2007, dated 2012).
